{Fluorescein} = fluorescein attached by a linker
Legend:
[1] = system: T1, PKC probe UP10-23PKC (SEQ ID NO: 165), peptide KRTLRRC conjugated to the UP10-23A pre-probe
T1 sequence: KRTLRRC

streptavidin [2] = molecular target: T2, streptavidin (Streptomyces avidinii, UniProt P22629); experiment: Receptor-binding assay, temperature dependence of fluorescence signal of unimolecular probes (Examples 11-17); conditions: for relative increase of the fluorescence intensity (¼ molar equivalent of streptavidin divided by that without streptavidin): 25° C., 50 pmol probe
T2 construct: purchased Pierce (IL, USA)
T2 sequence (P22629 25-183): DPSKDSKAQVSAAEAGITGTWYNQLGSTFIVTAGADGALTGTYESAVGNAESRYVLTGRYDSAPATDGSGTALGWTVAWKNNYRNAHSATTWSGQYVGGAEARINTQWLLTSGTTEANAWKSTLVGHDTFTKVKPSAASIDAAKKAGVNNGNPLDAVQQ
Protocol: In order to perform receptor-binding assay, about 50 pmol of each unimolecular probe was mixed with 0, ⅛, and ¼ molar equivalent of streptavidin (0, 6.25, 12.5 pmol, respectively) in 50 μL of pH 8.5 10 mM Tris containing 50 mM KCl, […] well of a 96 well PCR plate (Bio-Rad, CA, USA). Note that ¼ molar equivalent of streptavidine corresponds to 1 molar equivalent of the biotin binding site in streptavidin with respect to the amount of the unmolecular probe used because streptavidin has 4 biotin binding sites. The assay solutions were then incubated for about 30 min at 60° C. The temperature dependence of the fluorescence signal from each well was measured with an iCycler iQ real time PCR machine purchased from Bio-Rad (CA, USA) using the melting profile protocol.
The assay solutions for the unimolecular probes (50 pmol of each probe with 0, ⅛, and ¼ molar equivalent of streptavidin) were prepared in a 96 well PCR plates by the same procedure described in Example 11. As in Example 11, the temperature dependence of the fluorescence signal was measured with an iCycler iQ real time PCR machine.
Again, the assay solutions for the above unimolecular probes (50 pmol of each probe with 0, ⅛, and ¼ molar equivalent of streptavidin) were prepared in a 96 well PCR plates by the same procedure described in Example 11, and the temperature dependence of the fluorescence signal was measured with an iCycler iQ real time PCR machine.
Again, the assay solutions for the above two unimolecular probes (50 pmol of each probe with 0 and ¼ molar equivalent of streptavidin) were prepared in a 96 well PCR plates by the same procedure described in Example 11, and the temperature dependence of the fluorescence signal was measured with an iCycler iQ real time PCR machine.
Assay solutions for the above unimolecular probe (50 pmol of each probe with 0 and ¼ molar equivalent of streptavidin) were prepared in a 96 well PCR plates by the same procedure described in Example 11, and the temperature dependence of the fluorescence signal was measured.
Assay solutions for the above unimolecular probe (50 pmol of each probe with 0 and ¼ molar equivalent of streptavidin with total volume including the buffer solution being 50 μL) were prepared in a 96 well PCR plates using the following four buffer solutions: pH 6.0 10 mM MES containing 50 mM KCl, 2.5 mM MgCl2; pH 7.0 10 mM Tris containing 50 mM KCl, 2.5 mM MgCl2; pH 8.0 10 mM Tris containing 50 mM KCl, 2.5 mM MgCl2; and pH 9.0 10 mM Tris containing 50 mM KCl, […] The temperature dependence of the fluorescence signal from each well was measured with an iCycler iQ real time PCR machine.

streptavidin [3] = molecular target: T2, streptavidin; experiment: Unimolecular probe assay for streptavidin analysed by non-denaturing electrophoresis (Example 3); format: binding; conditions: in the presence of streptavidin; incubated in ice for an hour
From the text: Two unimolecular affinity probes, UP1-34B (SEQ ID NO: 127) and UP2-6B/36B (SEQ ID NO: 128), having biotin as a probe ligand were used to detect a receptor agent, streptavidin (SA). The unimolecular affinity probe UP1 is depicted schematically in FIG. 18. UP1 has a biotin-coupled thymidine at the 34th position, and UP2 has two biotin-coupled thyrnidines at the 6th and 36th positions (see FIG. 23A for the structure of the biotin-coupled thymidine). Each unimolecular probe has an interactive label pair consisting of a fluorescer, fluorescein, and a quencher, DABCYL (4-(4′-dimethylaminophenylazo)benzoic acid), which are covalently linked to the 5′ and the 3′ terminus by a linker, respectively. The structures of the fluorescein and DABCYL with the linker are shown in FIGS. 23B and 23D, respectively. […] This causes decrease of the fluorescence intensity from the probe compared to the dissociated conformation in which the stem duplex is dissociated and thus the fluorescer moiety is located distal from the quencher moiety. […]
Assay solutions were prepared according to the compositions summarized in Table 6, incubated in ice for an hour, and analyzed by electrophoresis. […] Dissociation of the stem duplexes due to the destabilization effect caused by the binding of the receptor agent is manifested by the increased fluorescence. […]

streptavidin [4] = molecular target: T2, streptavidin; experiment: Inhibition of binding of the receptor agent to the probe ligand using unimolecular probe UP6-23B (Example 18); conditions: 12.5 pmol streptavidin, 50 pmol probe; background subtracted
Protocol: Assay solutions for the inhibition test were prepared as follows. In each well of a 96 well PCR plate, 50 μL of 10 mM Tris, pH 8.5, 50 mM KCl, 2.5 mM MgCl2 containing 12.5 pmol of streptavidin and different amount of an inhibitor (biotin) was introduced and incubated for about 30 min at room temperature. About 50 pmol of the probe UP6-23B (SEQ ID NO: 141) was then added to each well and incubated for about 30 min at 60° C. before the fluorescence measurement.

streptavidin [5] = molecular target: T2, streptavidin; experiment: Immobilized trimolecular affinity probe assay for detecting streptavidin (Example 9); format: binding; conditions: upon addition of streptavidin, depending on amount added; CM3* fluorescence at 535 nm
From the text: Two immobilized trimolecular affinity probes having a probe ligand (biotin) conjugated to the first complement sequence were used to detect streptavidin. One of the trimolecular probes used in this example is depicted schematically in FIG. 15. The first probe consists of an object oligonucleotide OB1-1B (SEQ ID NO: 135) comprising first and second object sequences, a first complement sequence CM2-4B (SEQ ID NO: 136) having a probe ligand, and a second complement sequence CM3* (SEQ ID NO: 131). The second probe consists of an object oligonucleotide OB1-1B (SEQ ID NO: 135), a first complement sequence CM1-4B (SEQ ID NO: 133) having a probe ligand, and a second complement sequence CM3* (SEQ ID NO: 131). The object oligonucleotide OB1-1B has a biotin covalently linked to the first nucleotide, adenosine in the 5′ end that is used to immobilize the object sequence (see FIG. 23E for the structure of the biotin-coupled abasic nucleotide). The second complement oligonucleotide CM3* has fluorescein as a fluorescent label at the 5′ terminal.
The object oligonucleotide having a biotin residue in the 5′ terminal was immobilized to microwell plate wells coated with streptavidin. […] Fluorescence from the second complement oligonucleotide CM3* from each well was then measured at 535 nm using a microwell plate reader (GENios, TECAN, USA).

[6] = pH 6.0, 7.0, 8.0, 9.0, without and with streptavidin

Molecule: PKC (Protein Kinase C)
- fluorescence signal of the PKC probe after the kinase reaction and addition of anti-phosphothreonine antibody [1]: a substantial increase of the fulorescence signal with respect to that measured with un-reacted PKC probe is observed in the absence of the inhibitor

Molecule: UP15-23B: unimolecular probe (SEQ ID NO: 150), stem and loop length as UP6-23B, different loop sequence with secondary 4 bp stem conformer (GCAGGATACTGCTTACCATACCTGC; biotin label, position not given here, hairpin)
- relative increase of the fluorescence intensity (¼ molar equivalent of streptavidin divided by that without streptavidin) (streptavidin [2]): about 3

Molecule: UP10-13B: unimolecular probe (SEQ ID NO: 155), biotin in loop, 8th nucleotide from both ends of the loop region (GCAGCATCCTCATTACCCTAGCTGC; biotin in loop, hairpin stem-loop, further chemistry not given here)
- response of the fluorescence signal of the unimolecular probe to addition of the receptor agent (conjugation position dependence) (streptavidin [2]; ¼ molar equivalent of streptavidin vs. none): did not work properly as a unimolecular probe

Molecule: UP16-23B: unimolecular probe (SEQ ID NO: 151), stem and loop length as UP6-23B, different loop sequence with secondary 4 bp stem conformer (GCAGGACTCTCATTACACTGCCTGC; listed as DNA, chemistry not fully specified)
- relative increase of the fluorescence intensity (¼ molar equivalent of streptavidin divided by that without streptavidin) (streptavidin [2]): about 1.5

Molecule: UP14-21B: unimolecular probe (SEQ ID NO: 149), 4 bp stem duplex, biotin, fluorescein/DABCYL (GCAGATACTCATTACCATACTGC; biotin, fluorescein and DABCYL, positions not given here, hairpin)
- relative increase of the fluorescence signal, compared between the 4 bp and 6 bp stem probes (streptavidin [2]; upon addition of streptavidin): larger

Molecule: UP1-34B: unimolecular affinity probe (SEQ ID NO: 127), biotin-thymidine at 34th position, fluorescein/DABCYL, 6 bp stem (GCAGCCTAGGAAACACCAAAGATGATATTTGGCTGC; listed as DNA, chemistry not fully specified)
- melting temperature higher than that of the probe UP14-21B (streptavidin [2]; 6 bp stem duplex vs 4 bp stem duplex): about 20 °C
- fluorescence in the high mass region of the gel (streptavidin [3]): strongly enhanced fluorescence

Molecule: O=C(O)CCCC[C@@H]1SC[C@@H]2NC(=O)N[C@@H]21 [biotin]
- fluorescence intensity of UP6-23B as a function of inhibitor concentration (streptavidin [4]): decreases with increasing inhibitor concentration

Molecule: UP6-23B: unimolecular probe (SEQ ID NO: 141), 15 nt loop, 5 bp stem, biotin, fluorescein/DABCYL (GCAGGATACTCATTACCATACCTGC; biotin, fluorescein and DABCYL, positions not given here, hairpin)
- melting temperature (streptavidin [2]; absence of the receptor agent, 0 mM MgCl2): about 38 °C
- melting temperature (streptavidin [2]; absence of the receptor agent, 5 mM MgCl2): about 58 °C
- fluorescence intensity as a function of pH (streptavidin [2]; [6]): increases dramatically depending on the pH
- melting temperature as a function of pH (streptavidin [2]; [6]): increases with pH
- melting temperature (streptavidin [2]; presence of the receptor agent (¼ molar equivalent of streptavidin), 0 mM MgCl2): about 33 °C
- melting temperature (streptavidin [2]; presence of the receptor agent (¼ molar equivalent of streptavidin), 5 mM MgCl2): about 45 °C

Molecule: UP2-6B/36B: unimolecular affinity probe (SEQ ID NO: 128), biotin-thymidines at 6th and 36th positions, fluorescein/DABCYL, 7 bp stem (GCAGCTCTAGGAAACACCAAAGATGATATTTGAGCTGC; listed as DNA, chemistry not fully specified)
- fluorescence in the high mass region of the gel (streptavidin [3]): strongly enhanced fluorescence

B1: second probe: immobilized trimolecular affinity probe of Example 9: OB1-1B, CM1-4B and CM3* (nucleic acid)
chain 1: ATGGAAGTATATGGAAGTATATGGAAGTATTCGTGGGGTTTTGCAGTCGTAG
chain 2: GACTGCAAAACCCC
chain 3: CTACGACTGCAA
modifications: chain 1: DNA, backbone not given here; chain 2: DNA, backbone not given here; chain 3: DNA, 5' {Fluorescein}, backbone not given here; OB1-1B biotin at 5' first nucleotide, CM1-4B biotin ligand, further chemistry not fully specified
- increase of fluorescence intensity, normalized to intensity in the absence of the receptor agent (streptavidin [5]): 2-3.5 fold

Source: patent US20050118603A1, “Target detection system having a conformationally sensitive probe comprising a nucleic acid based signal transducer” (Ahram Biosystems Inc., priority 2002, published 2005)
